Assay results taken from patent publication US8198317B2, “Methylenedioxy phenolic compounds and their use to treat disease” (The Ohio State University Research Foundation, priority 2008, dated 2012).
“Also recorded” adds a separate entry of the source.

How the values were obtained:
Format in all cases: in vivo, rabbit
[1] = test system: New Zealand White rabbits; assay: MRI assessment of atherosclerosis in balloon denuded NZW rabbits; settings: high fat diet, 100 mg/kg/day, 12 weeks
Description: (§1) Animal Model: 15 male New Zealand White rabbits (Charles River, Mass.) were fed with high fat diet (HFD) (Harlan Teklad rabbit diet with 0.5% cholesterol, TD 87251). After 4 weeks of high fat diet, rabbits were randomized into three different treatment groups, normal control (n=5), lipoic acid (100 mg/kg/day) (n=5), INV 70-65 (100 mg/kg/day) (n=5). These drugs were administered to the animals via their chow by mixing the drugs with the high fat diet. A fixed amount of chow and drugs admixed in the chow were fed to all animals every day after carefully calculating food intake in each rabbit. Drugs were dissolved in 100% ethanol and sprayed onto the diet and kept under vacuum to let ethanol evaporate overnight. Two (2) weeks after drug or control admixed HFD, all rabbits underwent aortic balloon denudation surgeries followed by 12 weeks of continued administration of drug or controls admixed with HFD. FIG. 29 provides an outline of the experimental design.
MRI experiments were conducted at two time points: 1 week and 12 weeks after the balloon denudation procedure (FIG. 29). […] MR images were analyzed using a Siemens Leonardo Workstation (Siemens Healthcare Inc. Germany).
To assess the different rates of atherosclerosis plaque progression for each rabbit group, the aortic wall was identified in the pre-contrast images at both MRI time points. […] To account for the variable number of slices, for each rabbit a normalized aortic wall volume was calculated.
To assess plaque neovasculature progression in the different treatment groups, only the 12 weeks post balloon denudation MR images were used. […] The signal to noise ratio (SNR) for each slice was calculated as the mean signal obtained from the vessel wall divided by the standard deviation of the noise from a region outside the body. A ratio of the SNR enhancement for each rabbit was obtained by dividing the post and pre contrast calculated SNRs.

[2] = test system: thoracic aorta of New Zealand White rabbits; assay: Myograph experiments on thoracic aortic rings of NZW rabbits; settings: NZW thoracic aorta, end of 12 weeks
Description: as §1
Rabbits were euthanized by injection of lethal doses of pentobarbital. The thoracic aortas were collected for the myograph studies. Two (2) mm thoracic aortic rings were suspended in individual organ chambers filled with physiological salt solution buffer (sodium chloride, 130 mEq/L; potassium chloride, 4.7 mEq/L; calcium dichloride, 1.6 mEq/L; magnesium sulfate, 1.17 mEq/L; potassium diphosphate, 1.18 mEq/L; sodium bicarbonate, 14.9 mEq/L; EDTA, 0.026 mEq/L; and glucose, 99.1 mg/dL [5.5 mmol/L]; pH, 7.4), aerated continuously with 5% carbon dioxide in oxygen at 37° C. Vessels were allowed to equilibrate for at least 1 hour at a resting tension of 30 mN before being subjected to graded doses of agonists. The vasoconstrictor agonist phenylephrine (PE) was used and responses were expressed as a percentage of the peak response to 120 mEq/L of potassium chloride. The vessels subjected to PE were washed thoroughly and allowed to equilibrate for 1 hour before beginning experiments with acetylcholine or sodium nitroprusside (SNP). […] Results for the vasodilators were expressed as a percentage of pre-contraction by PE (0.1 μM).

[3] = test system: New Zealand White rabbits; assay: Oil Red O staining of abdominal aorta of NZW rabbits; settings: NZW abdominal aorta
Description: as §1
Hypercholesterolemia and oxidative stress play an important role in the development of atherosclerosis. The rabbits were sacrificed and abdominal aortas were fixed in 4% PFA (paraformaldehyde). The lipid deposition in the aortic wall was then visualized by oil red staining.

[4] = test system: New Zealand White rabbits; assay: Plasma lipid profile in NZW rabbits; settings: end of treatment
Description: as §1
A lipid profile (Cholesterol, Triglycerides, direct HDL, LDL and VLDL) was performed after a total of 12 weeks of treatment with the drugs. One (1) ml of blood from the ear lobe vein was placed into tubes containing K EDTA at the beginning of the high cholesterol diet and again at the time of sacrifice. All values were expressed as mean±SD. The bar graph of each group both at the baseline and the end point measurement is presented. The statistical analysis was done with one way ANOVA.

`O=C(O)CCCC[C@@H]1CCSS1` (racemic) [Lipoic Acid, lipoic acid, reference compound] was tested, and the “plaque burden by MRI” value [1] was “no difference”, the “Ach LogEC50” value [2] was −6.47 ± 0.18 M and the “PE LogEC50” value [2] was −6.48 ± 0.09 M. For the same molecule, the “SNP-1 LogEC50” value [2] was −6.75 ± 0.21 M, the “PE Maximum Effect” value ([2]; % of peak response to KCl) was 154.0 ± 7.24% and the “Ach Maximum Effect” value ([2]; % of pre-contraction by PE) was −33.00 ± 2.94 %. For the same molecule, the “Insulin Maximum Effect” value ([2]; % of pre-contraction by PE) was −107.8 ± 7.68%, the “SNP-1 Maximum Effect” value ([2]; % of pre-contraction by PE) was −89.04 ± 7.67% and the “lipid content in the plaque area (Oil Red O) compared to the control group” value [3] was “reduction”. For the same molecule, the HDL levels [4] was “increased moderately”, the “LDL level compared to normal control” value [4] was “moderate decreases; also recorded: lower” and the “TC level compared to normal control” value [4] was “moderate decreases”. For the same molecule, the “VLDL levels compared to controls” value [4] was “no change” and the “triglyceride (TG) levels compared to controls” value [4] was “significantly decreased”.
